One may read the melting point as the temperature of the solid-liquid transition. As for `Cc1cc(F)ccc1[C@H]1C[C@H](NCCF)CCN1C(=O)N(C)Cc1cc(C(F)(F)F)cc(C(F)(F)F)c1.Cl`, the melting point was in the range of 145 to 146 °C.

On to `Cc1cc(F)ccc1[C@H]1C[C@H](NCC(N)=O)CCN1C(=O)N(C)Cc1cc(C(F)(F)F)cc(C(F)(F)F)c1.Cl`, for which the melting point was 130 to 131 °C.

Take `Cc1cc(F)ccc1[C@H]1C[C@H](N(C)C)CCN1C(=O)N(C)Cc1cc(C(F)(F)F)cc(C(F)(F)F)c1.Cl`: the melting point is 180 to 183 °C.

Take `Cc1cc(F)ccc1[C@H]1C[C@@H](NCC(N)=O)CCN1C(=O)N(C)Cc1cc(C(F)(F)F)cc(C(F)(F)F)c1.Cl`: the melting point was 100 to 101 °C.

As to `Cc1cc(F)ccc1[C@H]1C[C@@H](N(C)C)CCN1C(=O)N(C)Cc1cc(C(F)(F)F)cc(C(F)(F)F)c1.Cl`, the melting point was 147 to 150 °C.
